Source: US10059722B2, “Cephalosporin derivatives and methods of use” (priority 2012, dated 2018)
Converted amounts (≈) assume the structure as drawn. Like-named read-outs stand apart in the source and are kept apart here.

How the values were obtained:
HepG2 cells = assay type: cell-based
Experimental: Three lead compounds were identified in the first round of high throughput screening (700 compounds), which had minimal inhibitory concentrations (MIC) of 0.4-0.8 μg/mL after a six day exposure to drug (NRd6) in the model of non-replication at pH 5.0, and LD50's of 100 to >100 μg/mL against HepG2 cells (a 2 day exposure).
Furthermore, LD50 values were determined using a human hepatoma cell line (HepG2) using intracellular ATP levels as a measurement that correlated with cellular viability.

[1] = system: non-replicating M. tuberculosis; assay: microbe, parasite or virus in culture; assay type: cell-based, Mycobacterium tuberculosis; conditions: Table 8, ranges from multiple assays; for MIC: Mycobacterium tuberculosis
[2] = read-out: MIC NR at 0.01 Inoc. and 3 Day Exposure to Drug, 7 Day Outgrowth
[3] = read-out: MIC NR at 0.01 Inoc. and 3 Day Exposure to Drug, 11 Day Outgrowth

Structure (SMILES)	HepG2 Toxicity LD50 (HepG2 cells; Table 8) [µg/mL]	MIC NR at 0.01 Inoc. and 3 Day Exposure to Drug, 7 Day Outgrowth [1] [µg/mL]	MIC NR at 0.01 Inoc. and 3 Day Exposure to Drug, 11 Day Outgrowth [1] [µg/mL]	HepG2 Toxicity LD50 (HepG2 cells; human, 2 day) [µg/mL]	MIC [1, 2] [µg/mL]	MIC [1, 3] [µg/mL]
C#CCCC(=O)N[C@@H]1C(=O)N2C(C(=O)OCCC)=C(C)CS[C@H]12 [Compound 34]	>100	1.56 (≈ 4.64 µM)	3.13 (≈ 9.3 µM)	–	–	–
CCOC(=O)C1=C(C)CS[C@@H]2[C@H](NC(=O)COc3ccccc3)C(=O)N12 [Compound 40]	>100	0.39 (≈ 1.04 µM)	0.78 (≈ 2.07 µM)	–	–	–
CCCOC(=O)C1=C(C)CS[C@@H]2[C@H](NC(=O)COc3ccc(OC)cc3)C(=O)N12 [Compound 42]	>100	0.20 (≈ 0.476 µM)	0.39 (≈ 0.927 µM)	–	–	–
CCOC(=O)C1=C(C)CS[C@@H]2[C@H](NC(=O)COc3ccc(OC)cc3)C(=O)N12 [Compound 43]	>100	0.39 (≈ 0.96 µM)	1.56 (≈ 3.84 µM)	–	–	–
CCCOC(=O)C1=C(C)CS[C@@H]2[C@H](NC(=O)COc3ccc(Cl)cc3)C(=O)N12 [Compound 45]	100	0.39 (≈ 0.918 µM)	0.39 (≈ 0.918 µM)	–	–	–
CCOC(=O)C1=C(C)CS[C@@H]2[C@H](NC(=O)COc3ccc(Cl)cc3)C(=O)N12 [Compound 46]	50	0.39 (≈ 0.949 µM)	078 (≈ 190 µM)	–	–	–
CCCOC(=O)C1=C(C)CS[C@@H]2[C@H](NC(=O)CCc3ccccc3)C(=O)N12 [Compound 48]	>100	0.10 (≈ 0.257 µM)	0.20 (≈ 0.515 µM)	–	–	–
CCOC(=O)C1=C(C)CS[C@@H]2[C@H](NC(=O)CCc3ccccc3)C(=O)N12 [Compound 49]	>100	0.20 (≈ 0.534 µM)	0.39 (≈ 1.04 µM)	–	–	–
CCCOC(=O)C1=C(C)CS[C@@H]2[C@H](NC(=O)CCc3ccc(OC)cc3)C(=O)N12 [Compound 51]	–	0.10 (≈ 0.239 µM)	0.10 (≈ 0.239 µM)	–	–	–
CCOC(=O)C1=C(C)CS[C@@H]2[C@H](NC(=O)CCc3ccc(OC)cc3)C(=O)N12 [Compound 52]	>100	0.20 (≈ 0.494 µM)	0.39 (≈ 0.964 µM)	–	–	–
CCCOC(=O)C1=C(C)CS[C@@H]2[C@H](NC(=O)CCc3ccc(Cl)cc3)C(=O)N12 [Compound 54]	>100	0.20 (≈ 0.473 µM)	0.39 (≈ 0.922 µM)	–	–	–
CCOC(=O)C1=C(C)CS[C@@H]2[C@H](NC(=O)CCc3ccc(Cl)cc3)C(=O)N12 [Compound 55]	>100	0.20 (≈ 0.489 µM)	0.39 (≈ 0.954 µM)	–	–	–
C#CCOC(=O)C1=C(C)CS[C@@H]2[C@H](NC(=O)COc3ccccc3)C(=O)N12 [Compound 82]	>100	1.56 (≈ 4.04 µM)	3.13 (≈ 8.1 µM)	–	–	–
C#CCOC(=O)C1=C(C)CS[C@@H]2[C@H](NC(=O)COc3ccc(OC)cc3)C(=O)N12 [Compound 85]	>100	0.78 (≈ 1.87 µM)	1.56 (≈ 3.75 µM)	–	–	–
C#CCOC(=O)C1=C(C)CS[C@@H]2[C@H](NC(=O)COc3ccc(Cl)cc3)C(=O)N12 [Compound 88]	100	0.78 (≈ 1.85 µM)	1.56 (≈ 3.71 µM)	–	–	–
C#CCOC(=O)C1=C(C)CS[C@@H]2[C@H](NC(=O)CCc3ccccc3)C(=O)N12 [Compound 91]	>100	0.78 (≈ 2.03 µM)	1.56 (≈ 4.06 µM)	–	–	–
C#CCOC(=O)C1=C(C)CS[C@@H]2[C@H](NC(=O)CCc3ccc(OC)cc3)C(=O)N12 [Compound 94]	>100	0.78 (≈ 1.88 µM)	1.56 (≈ 3.76 µM)	–	–	–
C#CCOC(=O)C1=C(C)CS[C@@H]2[C@H](NC(=O)CCc3ccc(Cl)cc3)C(=O)N12 [Compound 97]	100	0.39 (≈ 0.931 µM)	0.78 (≈ 1.86 µM)	–	–	–
CCCCOC(=O)C1C(C)=CS[C@@H]2[C@H](NC(=O)COc3ccccc3)C(=O)N12 (some centres unmarked) [Compound 98]	–	–	–	100	0.39 (≈ 0.964 µM)	0.39 (≈ 0.964 µM)
CCCOC(=O)C1=C(C)CS[C@@H]2[C@H](NC(=O)CCc3ccc(OC)cc3)C(=O)N12 [Compound 99]	–	–	–	>100	0.1 (≈ 0.239 µM)	0.2 (≈ 0.478 µM)
